Test results: paper PMC9967645, “OAT3 Participates in Drug–Drug Interaction between Bentysrepinine and Entecavir through Interactions with M8—A Metabolite of Bentysrepinine—In Rats and Humans In Vitro” (Molecules, 2023)
Read-outs that look alike come from different tables or passages of the source. Values belong to the molecule of their own block, whether it stands above or below them.

How the values were obtained:
[1] = system: lamivudine and entecavir-resistant HBV; design: method as in PMID 32277364, PMID 21872478, PMID 19307124, doi:10.1016/S1674-6384(15)60018-1; conditions: A64 cells; cited from earlier work
[2] = Pharmacokinetic study in rats, intravenous Y101 with or without PRO; assay type: in vivo, Sprague–Dawley (SD) rats; conditions: for Vd / half-life / clearance / AUC(0-inf) / AUC(0-t) / C0 / Tmax / Cmax: male, Sprague-Dawley, rat, plasma, iv, 25 mg/kg; for Vd / half-life / AUC(0-inf) / AUC(0-t) / C0 / Tmax / Cmax: n = 3; for clearance: n = 3, read-out: CLp (plasma clearance) (converted)
Procedure: The effect of PRO on the pharmacokinetics of Y101 was studied in rats. Male rats surgically prepared with indwelling jugular cannula were randomly divided into two groups (n = 3): (1) Y101 alone (25 mg/kg) as a control and (2) Y101 + PRO (25 mg/kg for Y101 and 100 mg/kg for PRO) as an experimental group. The intravenous dose of Y101 was prepared as previously described. Both Y101 and PRO were injected by caudal vein to rats at volume of 5 mL/kg.
Following administration, serial blood samples were collected through jugular vein pre-dose (0 h) and post-dose at 0.033, 0.083, 0.25, 0.5, 1, 1.5, 2, 3, 4, 6, 9, 12, 24 and 30 h in heparinized Eppendorf tubes. The resulting samples were centrifuged at 13,800× g at 4 °C for 5 min to obtain plasma. All plasma samples were stored at −70 °C until analysis.
Biological samples were prepared as previously described.
Non-compartmental analysis with Phenix WinNonlin (version 8.1; Pharsight, Certara Corp, Princeton, NJ) was used to calculate the main pharmacokinetic parameters of ETV, Y101, M8 and M9 for individual rats. The observed values were reported for maximum concentration (Cmax) and time to reach maximum concentration (Tmax), while the area under the plasma concentration–time curve (AUC) was calculated via the default trapezoidal-up, log-trapezoidal-down approach.

[3] = design: method as in PMID 32277364, PMID 29258048; conditions: healthy Chinese volunteers, phase I; cited from earlier work
HBV = system: HBV; design: method as in PMID 32277364, PMID 21872478, PMID 19307124, doi:10.1016/S1674-6384(15)60018-1; conditions: dose-dependent; cited from earlier work
[4] = concanavalin A and alpha-naphthylisothiocyanate-induced; cited from earlier work
[5] = human, in vivo; cited from earlier work
hOAT3 = molecular target: T1, hOAT3 (Homo sapiens, UniProt Q8TCC7); design: expressed in transfected cells; host or cells: HEK293; method as in PMID 23313623; conditions: read-out: Km (affinity with hOAT3); cited from earlier work
T1 sequence (Q8TCC7 1-542): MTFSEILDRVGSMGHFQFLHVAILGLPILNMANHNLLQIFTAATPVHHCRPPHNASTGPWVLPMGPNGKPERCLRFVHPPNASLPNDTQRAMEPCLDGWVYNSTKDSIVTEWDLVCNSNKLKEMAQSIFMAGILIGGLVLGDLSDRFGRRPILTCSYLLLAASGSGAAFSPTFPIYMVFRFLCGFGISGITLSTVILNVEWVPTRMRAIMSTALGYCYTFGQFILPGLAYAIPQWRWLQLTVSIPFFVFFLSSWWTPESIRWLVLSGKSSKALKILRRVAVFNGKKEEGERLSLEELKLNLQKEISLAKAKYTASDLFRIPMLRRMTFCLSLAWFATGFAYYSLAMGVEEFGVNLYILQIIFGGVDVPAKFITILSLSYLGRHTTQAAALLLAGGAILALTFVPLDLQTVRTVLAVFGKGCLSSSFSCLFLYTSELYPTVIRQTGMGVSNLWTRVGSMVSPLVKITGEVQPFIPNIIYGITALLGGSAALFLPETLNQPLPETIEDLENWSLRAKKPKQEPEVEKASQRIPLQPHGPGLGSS

[6] = i.v. Y101 25 mg/kg + PRO 100 mg/kg
[7] = i.v. Y101 25 mg/kg + PRO 100 mg/kg vs Y101 alone

Structure (SMILES): CN(C)CCOc1ccc(C[C@H](NC(=O)c2ccccc2)C(=O)N[C@H](CO)Cc2ccccc2)cc1.Cl [Y101, N-[N-benzoyl-O-(2-dimethylaminoethyl)-l-tyrosyl]-l-phenylalaninol hydrochloride]
activity against lamivudine and entecavir-resistant HBV replication [1]: significant activity
Vd [2, 6]: 12.5 L/kg
half-life [2, 6]: 42.4 min
clearance [2, 6]: 207 mL/min/kg
AUC(0-inf) [2, 6]: 2030 ng·h/mL
AUC(0-t) [2, 6]: 2020 ng·h/mL
C0 [2, 6]: 15800 ng/mL
AUC(0-inf) ([2]; i.v. Y101 25 mg/kg alone): 2860 ng·h/mL
AUC(0-t) ([2]; i.v. Y101 25 mg/kg alone): 2840 ng·h/mL
C0 ([2]; i.v. Y101 25 mg/kg alone): 16000 ng/mL
Vd ([2]; i.v. Y101 25 mg/kg alone): 10.2 L/kg
half-life ([2]; i.v. Y101 25 mg/kg alone): 47.9 min
clearance ([2]; i.v. Y101 25 mg/kg alone): 149 mL/min/kg
safety and tolerability [3]: acceptable safety and tolerability
inhibitory effects on HBsAg and HBV-DNA replication (HBV): potent inhibitory effects
protective effects on induced liver injury [4]: protective effects

Structure (SMILES): C=C1[C@H](CO)[C@@H](O)C[C@@H]1n1cnc2c(=O)[nH]c(N)nc21 [ETV, entecavir]
plasma concentrations [5]: lower than 50 nM
Km (hOAT3): 23 µM

elevation in AUC value on co-administration of PRO [2, 7]: 163%
increase in Cmax value on co-administration of PRO [2, 7]: 2.6 fold
Tmax [2, 6]: 30 min
half-life [2, 6]: 207 min
AUC(0-inf) [2, 6]: 21900 ng·h/mL
AUC(0-t) [2, 6]: 21900 ng·h/mL
Cmax [2, 6]: 10100 ng/mL
AUC(0-inf) ([2]; i.v. Y101 25 mg/kg alone): 8360 ng·h/mL
AUC(0-t) ([2]; i.v. Y101 25 mg/kg alone): 8300 ng·h/mL
Cmax ([2]; i.v. Y101 25 mg/kg alone): 3890 ng/mL
Tmax ([2]; i.v. Y101 25 mg/kg alone): 40 min
half-life ([2]; i.v. Y101 25 mg/kg alone): 244 min
Structure (SMILES): CN(C)CCOc1ccc(CC(NC(=O)c2ccccc2)C(=O)O)cc1 (stereo not drawn) [M8]
